Values after ≈ are worked out from the molar mass of the structure shown. Like-named read-outs stand apart in the source and are kept apart here.
Experiments:
[1] = Toxicity test in cell monolayers, ECV-304; type: cell-based; conditions: human, ECV-304 endothelial cell monolayer; read-out: LC50
Method: (§1) In solid tumors, proliferating cells are sometimes more sensitive to treatment than quiescent, non-proliferating cells. To investigate this in cell monolayers, we used sparse plating densities (6K/well in a 96 well plate) to allow cell proliferation and confluent densities (24K/well in a 96 well plate) to simulate quiescent cells. Cells were plated in 96 well plates at sparse or confluent densities and then incubated four days in growth medium supplemented with various doses of antioxidants. After incubation, cell numbers were determined by standard […] techniques. Data were analyzed by scaling the cell number at any given antioxidant dose to that of the control and fitting the dose-response data to a sigmoid curve. Values of LC50, the dose required to reduce cell number by fifty percent relative to untreated controls, were computed from the sigmoid data fit.

[2] = system: SW620 (Colon Adenocarcinoma); assay: Toxicity test in cell monolayers, SW620; type: cell-based; conditions: Homo sapiens, SW-620, 96 h, lipoic acid as sodium salt
Method: as §1

SK-MEL (Melanoma) = assay: Toxicity test in cell monolayers, SK-MEL; type: cell-based; conditions: Homo sapiens, 96 h, lipoic acid as sodium salt
Method: as §1

[3] = system: Mia PaCa (Pancreatic Carcinoma); assay: Toxicity test in cell monolayers, Mia PaCa; type: cell-based; conditions: Homo sapiens, MIA PaCa-2, 96 h, lipoic acid as sodium salt
Method: as §1

MCF-7 (Breast Carcinoma) = assay: Toxicity test in cell monolayers, MCF-7; type: cell-based; conditions: Homo sapiens, MCF7, 96 h, lipoic acid as sodium salt
Method: as §1

[4] = male, human, in vivo, iv
Method: (§2) A person with diagnosed metastatic prostate cancer was infused intravenously with […] sodium ascorbate in sterile water over an eighty minute period. Blood samples were taken at regular intervals over a twenty-four hour period, frozen, and then analyzed for ascorbate content using a colorimetric assay. The ascorbate plasma concentration was analyzed in a prostate cancer patient given a 60 gram intravenous infusion of sodium ascorbate over an 80 minute period. […] The plasma volume Vp, was fixed at 30 dl. […] Predicted plasma ascorbate levels from a two compartment, four parameter pharmacokinetic model of ascorbate transport and clearance in blood. […] Infusion is modeled as continuous. Parameter values for the compartmental model are as follows: KX=0.124 min^−1, K1=0.124 min^−1, K2=0.038 min^−1. The plasma volume Vp, was fixed at 30 dl. A phase one clinical trial is currently under way to assess the safety of continuous ascorbate infusions, and is currently near completion.

[5] = Phase one clinical trial of continuous ascorbate infusions (safety); conditions: doses up to 50 g/day
Method: as §2

[6] = system: SW620 hollow fiber tumors
Method: (§3) SW620 hollow fiber solid tumors were grown as previously described. […] SW620 colon carcinoma cells were prepared in cell culture medium at a concentration of 10^7 cells/ml and injected into the hollow fibers. The fibers were then heat sealed at roughly 2 cm intervals to trap the cells inside them. SW620 hollow fibers were then cultured in Petri dishes for three days. After three days, the hollow fibers are transferred to stirred medium either by moving them to spinner flasks containing 50 ml cell culture medium stirred at 150 rpm by a magnetic stirrer or by transferring them to six-well plates placed on an orbital shaker at 150 rpm. Cell culture medium was replenished on days three and six. […] After one or two days incubation on an orbital shaker, the hollow fiber tumors were rinsed and the cells were extruded out of the fibers with trypsin. The cylindrical tumor cell mass was exposed to trypsin while pipetting up and down to form a single cell suspension. Cell culture medium was then added to stop trypsin action. Surviving fractions were determined as previously described. Briefly, cells were transferred to ninety-six-well plates at a concentration of 5000 cells per well and incubated for six days. The surviving cell population was then measured using the SRB colorimetric assay. Surviving fraction was expressed as the ratio of the SRB staining at a given dose to that for cells from untreated hollow fiber tumors.
(§4) The surviving fractions without ascorbate (denoted SFO) were analyzed along with the doses of ascorbate required to reduce the surviving fraction to half the SFO value, denoted LC50. Standard deviations for SFO and LC50 values were analyzed by the curve-fitting program KalediaGraph (Synergy Software).
(§5) Data from three replicate experiments were pooled. The doses of ascorbate required to reduce the surviving fraction to half the control value were denoted as LC50. Standard deviations on LC50 values were estimated by the curve-fitting program kaleidaGraph (Synergy Software).

[7] = system: SW620 hollow fiber tumors; conditions: hollow fiber solid tumor model, background statement; cited from earlier work
[8] = system: SW620 hollow fiber tumors; assay: cells; conditions: Homo sapiens, SW-620, read-out: ascorbate LC50 (dose reducing surviving fraction to half the control value)
Method: as §3, §4, §5

[9] = humans, intravenous infusion, peak level; cited from earlier work
B16 melanoma = assay: Murine tumor model: B16 melanoma in C57 mice; type: in vivo
Method: C57 mice were divided into groups of twenty and inoculated by B16 melanoma cells subcutaneously. After forty-eight hours, treatments were administered once every other day for a five week period by subcutaneous injection near the tumor site. Tumor size was measured on days ten, seventeen, and twenty-four of treatment. […]

Structure (SMILES): O=C1O[C@H]([C@@H](O)CO)C(O)=C1O [Ascorbate, ascorbic acid]
- CC50 at 4 days [1]: 1490 ± 160 µg/mL (≈ 8.46 mM)
- CC50 ([2]; read-out: LC50, SW620, confluent density (24K/well), four days incubation): 390 ± 140 µg/mL
- CC50 ([2]; read-out: LC50, SW620, sparse density (6K/well), four days incubation): 300 ± 40 µg/mL
- CC50 (SK-MEL (Melanoma); read-out: LC50, SK-MEL, confluent density (24K/well), four days incubation): 780 ± 160 µg/mL
- CC50 (SK-MEL (Melanoma); read-out: LC50, SK-MEL, sparse density (6K/well), four days incubation): 150 ± 20 µg/mL
- CC50 ([3]; read-out: LC50, Mia PaCa, confluent density (24K/well), four days incubation): 3080 ± 330 µg/mL
- CC50 ([3]; read-out: LC50, Mia PaCa, sparse density (6K/well), four days incubation): 530 ± 60 µg/mL
- CC50 (MCF-7 (Breast Carcinoma); read-out: LC50, MCF-7, confluent density (24K/well), four days incubation): 230 ± 30 µg/mL
- CC50 (MCF-7 (Breast Carcinoma); read-out: LC50, MCF-7, sparse density (6K/well), four days incubation): 120 ± 10 µg/mL
- K1 [4]: 0.124 min⁻¹
- K2 [4]: 0.038 min⁻¹
- KX [4]: 0.124 min⁻¹
- peak plasma value [4]: 460 mg/dL
- safety of continuous ascorbate infusions [5]: found safe
- surviving fraction ([6]; 52 mg/dL ascorbate for forty-eight hours, based on the data in EXAMPLE 2): greater than ninety percent
- ascorbate concentration that may be required to effectively treat tumors [7]: > 500 mg/dL
- CC50 [8]: 4900 µg/mL (≈ 27.8 mM)
- maximum plasma ascorbic acid concentration generally achievable [9]: roughly 500 mg/dL

Structure (SMILES): O=C(O)CCCCC1CCSS1 (racemic) [Lipoic Acid, DL-α-Lipoic Acid (DL-6,8-Thioctic Acid)]
- Animal Survival (percent) (B16 melanoma; day twenty-four, control 70%): 90%
- Animal Survival (survivors/group) (B16 melanoma; day twenty-four, groups of twenty, control 14/20): 18/20
- tumor size compared with the control group (B16 melanoma; measured on days ten, seventeen and twenty-four of treatment): significantly smaller
- toxic effect of lipoic acid itself (surviving fraction without ascorbate, SFO) ([6]; lipoic acid 5 mg/dl or 20 mg/dl, 48 hours): exhibited a toxic effect

Reference: patent US6448287B1 (priority 1999, dated 2002)
